Reference: patent US20240117431A1, “STEM-CELL BASED BIOMARKER DISCOVERY” (THE REGENTS OF THE UNIVERSITY OF CALIFORNIA, priority 2020, published 2024)

What was measured:
(−)TgUPRT HEK cells = test: Background incorporation of uracil analogs into RNA, streptavidin-HRP dot blot; format: cell-based; details: for incorporation into RNA at higher concentration: 1 mM, mimics in vivo applications, FIG. 4
Method: Transfection, labeling of cellular RNA and RNA isolation: After 48h seeding, HEK293 cells were transfected with 2.5 μg of TgUPRT WT or mutant plasmids (pKN-CMV-TgUPRT-WT or -Mutt to Mut17) per 5 cm plate using JetPrime Transfection reagent (Polyplus Transfection, France). At 40h post-transfection, cells were incubated with a final concentration of 200 μM at <1% DMSO from 400 mM stock of uracil analogs (5EU, 5VU, 5AU) or 200 mM SAMU stock for 5 h. For time course study, HEK cells were treated with 200 μM uracil analogs for 0 h, 0.5, 1, 3, 5, 12 and 24 hours. For titrating uracil analog concentration experiments, HEK cells were treated with 0 (DMSO), 50, 100, 200, 500 μM or 1 mM uracil analog for 5h. Treated HEK cells were subjected to total RNA extraction using 1 mL Trizol Reagent (Invitrogen) following the manufacturer instructions.
Biotinylation via CuAAC and IEDDA: Cu-mediated Azide-Alkyne cycloaddition (CuAAC) click reactions were performed in 50 μL reaction at 22° C. on a shaker for 30 min with click reaction cocktail containing 15 μg of total RNA, 1 mM biotin alkyne or biotin azide, fresh 4.6 mM THPTA to a final concentration of 1 mM, and fresh 10.6 mM sodium ascorbate (NaAsc) at final concentration of 1.77 mM, and 12 mM CuSO4 at final concentration of 200 μM in biotinylation reaction buffer (10 mM TrisHCI, 1 mM EDTA, pH7.4). The biotinylated RNA was purified using RNA clean & Concentrator-5 kit (Zymo Research, Cat #R1013) according to the manufacturer instructions and eluted in 21 μL of nuclease free water.
Inverse electron demand [4+2] Diels-Alder cycloaddition (IEDDA) click reactions were performed in 50 μL at 37° C. or 22° C. (RT) for 3h on mixer at 500 rpm containing 10-15 μg of total RNA, 1 mM final concentration of biotin-benzyl tetrazine (Sigma Aldrich, Cat #793329-5MG) in nuclease free water. Clicked total RNA was purified using RNA clean & Concentrator-5 kit (Zymo Research, Cat #R1013) according to the manufacturer instructions, and RNA was eluted in 21 μL of nuclease free water.
HRP-streptavidin dot blot analysis: All gel reagents were from Bio-Rad. For dot blot analysis, 2 μg of clicked total RNA was applied onto Hybond-N+ membrane (GE Healthcare) as individual dots and UV-crosslinked (254 nm) to a membrane (Stratalinker UV crosslinker). Membranes were blocked in blocking buffer (0.12 M NaCl, 0.016 M Na2HPO4, 0.008 M NaH2PO4, 0.17 M SDS) and followed by incubation with high sensitivity streptavidin-HRP (Fisher Scientific, Cat #: P121130) at 1:5000 dilution in blocking buffer for 5 minutes. The membrane was washed twice in a Wash A buffer (1:10 dilution of blocking buffer) and twice in Wash B buffer (Tris-saline buffer). […]

UPRT(+)-microglia brains = test: In vivo labeling of brain RNA in mice transplanted with UPRT-expressing human microglia, biotin dot blot; details: IP close to 150 mg/kg, 24-48 hours, FIG. 14
Method: 5-vinyl-uracil (Alfa Aesar #4437903) was prepared in sterile conditions at 4 times the concentration in 100% DMSO, then diluted to 25% DMSO by adding corn oil to a final concentration of 500 mM. The mixture was heated to 37° C. for […] until homogenous. Mice are weighed before intraperitoneal injection (IP) injection to ensure close to 150 mg/kg are injected per treatment. For an (˜20 g) adult mouse typically 60-70 μl are IP injected per treatment. Mice are monitored for signs of distress. After 24-48 hours of treatment, mice were sacrificed and brains were immediately placed into 2 ml of RNAlater and left in 4° C. for 3-5 days. After removing brains from RNAlater, they were homogenized with RNAse-free 1.4 mm steel beads (Next Advance SSB14B-RNA) for 60 seconds and centrifuged at 4° C. for 5 min, maximum speed to separate the fatty layer. The bottom layer is collected, homogenized with 200 ul chloroform and centrifuged for 20 minutes, at 4° C. The aqueous layer is collected and 500 ul isopropanol added. After centrifugation for 30 minutes 4° C., the RNA pellet is washed in 70% Ethanol twice. After removing ethanol, the RNA pellet is resuspended in nuclease-free water and nanodrop to determine the concentration. From each sample, 15 μg of RNA was subjected in tetrazine-biotin ligation at 37° C., 500 RPM for 3 hours. The biotinylated RNA was purified with RNA Zymo Clean and Concentrator #5 and eluted with nuclease-free water. 2 μg of purified RNA was spotted onto a N+ Hybond membrane and UV-crosslinked at 254 nm (120,000 uJ). Membrane is blocked in blocking buffer (0.12 M NaCl, 0.016 M Na2HPO4, 0.008 M NaH2PO4, 0.17 M SDS) and followed by incubation with high sensitivity streptavidin-HRP (Fisher Scientific, Cat #: P121130) at 1:5000 dilution in blocking buffer for 5 minutes. The membrane was washed twice in a Wash A buffer (1:10 dilution of blocking buffer) and twice in Wash B buffer (Tris-saline buffer). It was then incubated for 1-5 min. in ECL Chemiluminescent Substrate (Fisher Scientific, Cat #: P132106) and imaged on a ChemiDoc MP imaging system (Bio-Rad). […]

| Structure (SMILES) | incorporation into RNA at higher concentration ((−)TgUPRT HEK cells) | background incorporation into RNA ((−)TgUPRT HEK cells; (−)TgUPRT HEK cells, FIGS. 3A, 3B) | incorporation into brain RNA, UPRT(+)-microglia transplanted (UPRT(+)-microglia brains) | incorporation into brain RNA, UPRT(−)-microglia brains (UPRT(+)-microglia brains) |
| --- | --- | --- | --- | --- |
| C#Cc1c[nH]c(=O)[nH]c1=O [compound 1, 5-ethynylpyrimidine-2,4(1H,3H)-dione] | very robust incorporation | low level of background incorporation |  |  |
| C=Cc1c[nH]c(=O)[nH]c1=O [compound 2, 5-Vinylpyrimidine-2,4(1H,3H)-dione] | not observed |  | observable signals | significant biotin signal was not observed |
